Results from patent US8987216B2, “Polysulfated glycosides and salts thereof” (Teva Hungary Pharmaceutical Marketing Private Limited …, priority 2004, dated 2015).
Counter-ions that a name gives are not always drawn. Like-named read-outs stand apart in the source and are kept apart here.

Columns and labels:
BN rats [1] = experiment: Effect on the extent of perivascular oedema developed in asthmatic lung tissue; format: in vivo, Brown Norway (BN) rats; conditions: Control 55 ± 6, Challenge 209 ± 12
Procedure: Sensitized BN rats were treated intratracheally with varying (0.01-1.0 mg/kg) dose of compound described in example 4, two hours before antigenic challenge, using a similar protocol described in Model 1. Lungs were collected […] and were fixed in 8% phosphate buffered formaldehyde. Samples were then processed for histochemistry routinely. 5 μm thick sections were stained with periodic-acid-Schiff (PAS) reagents and were counterstained with haematoxylineosine. On the 5 μm sections, the area of the connective tissue around the vasculare was determined and expressed as a ratio of the area of the corresponding blood vessel itself.

BN rats [2] = experiment: Effect on the allergen stimulated mucus production of airways epithelial cells (PAS(+) cell count in lung sections); format: in vivo, Brown Norway (BN) rats; conditions: lungs 48 hours after challenge, Control 2.2 ± 0.9, Challenge 15.8 ± 2.8
Procedure: Sensitized BN rats were treated intratracheally with varying (0.01-1.0 mg/kg) dose of compound described in example 4, two hours before antigenic challenge, using a similar protocol described in Model 1. Lungs were collected 48 hours after challenge and were fixed in 8% phosphate buffered formaldehyde. Samples were then processed for histochemistry routinely. 5 μm thick sections were stained with periodic-acid-Schiff (PAS) reagents and were counterstained with haematoxylineosine. On the sections each epithelial cells of the airways were counted in the whole preparation at a magnification of 400×. The number of PAS(+) [mucus producing] epithelial cells was expressed as the ratio of the total number of epithelial cells.
As it is shown in Table 2, allergen challenge stimulates the mucus production of airways epithelial cells (control vs. challenge).

BN-rats = experiment: Effect of locally (intratracheally) administered polysulfated glycosides on airways' hyperresponsiveness ex vivo (tracheal contraction to acetylcholine after antigen challenge); format: in vivo, Brown Norway (BN) rats; conditions: Control 100 ± 0, Placebo 334 ± 68
Procedure: Brown Norway (BN) rats were actively sensitized to ovalbumin (OA) by a subcutaneous injection of 0.5 ml of OA/A1(OH)3 gel mixture (2 mg OA+10 g A1(OH)3/100 ml saline) on day 1 with subsequent subcutaneous injections (10 mg OA+10 g A1(OH)3/100 ml saline) given on days 14 and 21. On day 28, animals received the compound described in example 4 intratracheally (0.01; 0.1 or 1.0 mg/kg dose) 2 hours before antigen challenge. Antigen challenge was performed by inhalation of nebulised ovalbumin (1% antigen solution administered in a TSE inhalation system for 1 hour). Animals were sacrificed 48 hours post antigen challenge wherein the tracheas were removed to an organ bath. Dissected tracheas were allowed to equilibrate for 30 minutes before measuring tracheal spasmogenic response curves to acetylcholine (Ach).
As shown in Table 1 ovalbumin challenge of sensitized animals in this model caused a significant tracheal hyper-reactivity to acetylcholine, when the response to the spasmogenic agent was determined 48 h after antigen challenge.

IP-3 receptor = biological target: T1, IP-3 receptor (Rattus norvegicus, UniProt P29994); experiment: IP-3 receptor antagonistic effect: inhibition of IP3 binding to its receptor in rat cerebellum membrane preparations
T1 construct: determined using rat cerebellum membrane preparations; from tissue; host or cells: rat cerebellum (microsomal membrane preparation)
Procedure: Glycosides of the present invention, depending on their chemical structure, inhibit the binding of inositol-1,4,5-trisphosphate (IP3) to its receptor in microsomal membrane preparations. As IP3 is a messenger molecule playing distinguished role in the activation of different cells, interfering with this function can explain the anti-asthmatic effect of these polysulfated glycosides.
The IP3 antagonist effect of the polysulfated glycosides were determined using rat cerebellum membrane preparations according to Worley et al. (JBC 262, 12132, 1987).

[3] = 0.01 mg/kg intratracheally two hours before antigenic challenge
[4] = 0.1 mg/kg intratracheally two hours before antigenic challenge

T1 sequence (P29994 whole entry): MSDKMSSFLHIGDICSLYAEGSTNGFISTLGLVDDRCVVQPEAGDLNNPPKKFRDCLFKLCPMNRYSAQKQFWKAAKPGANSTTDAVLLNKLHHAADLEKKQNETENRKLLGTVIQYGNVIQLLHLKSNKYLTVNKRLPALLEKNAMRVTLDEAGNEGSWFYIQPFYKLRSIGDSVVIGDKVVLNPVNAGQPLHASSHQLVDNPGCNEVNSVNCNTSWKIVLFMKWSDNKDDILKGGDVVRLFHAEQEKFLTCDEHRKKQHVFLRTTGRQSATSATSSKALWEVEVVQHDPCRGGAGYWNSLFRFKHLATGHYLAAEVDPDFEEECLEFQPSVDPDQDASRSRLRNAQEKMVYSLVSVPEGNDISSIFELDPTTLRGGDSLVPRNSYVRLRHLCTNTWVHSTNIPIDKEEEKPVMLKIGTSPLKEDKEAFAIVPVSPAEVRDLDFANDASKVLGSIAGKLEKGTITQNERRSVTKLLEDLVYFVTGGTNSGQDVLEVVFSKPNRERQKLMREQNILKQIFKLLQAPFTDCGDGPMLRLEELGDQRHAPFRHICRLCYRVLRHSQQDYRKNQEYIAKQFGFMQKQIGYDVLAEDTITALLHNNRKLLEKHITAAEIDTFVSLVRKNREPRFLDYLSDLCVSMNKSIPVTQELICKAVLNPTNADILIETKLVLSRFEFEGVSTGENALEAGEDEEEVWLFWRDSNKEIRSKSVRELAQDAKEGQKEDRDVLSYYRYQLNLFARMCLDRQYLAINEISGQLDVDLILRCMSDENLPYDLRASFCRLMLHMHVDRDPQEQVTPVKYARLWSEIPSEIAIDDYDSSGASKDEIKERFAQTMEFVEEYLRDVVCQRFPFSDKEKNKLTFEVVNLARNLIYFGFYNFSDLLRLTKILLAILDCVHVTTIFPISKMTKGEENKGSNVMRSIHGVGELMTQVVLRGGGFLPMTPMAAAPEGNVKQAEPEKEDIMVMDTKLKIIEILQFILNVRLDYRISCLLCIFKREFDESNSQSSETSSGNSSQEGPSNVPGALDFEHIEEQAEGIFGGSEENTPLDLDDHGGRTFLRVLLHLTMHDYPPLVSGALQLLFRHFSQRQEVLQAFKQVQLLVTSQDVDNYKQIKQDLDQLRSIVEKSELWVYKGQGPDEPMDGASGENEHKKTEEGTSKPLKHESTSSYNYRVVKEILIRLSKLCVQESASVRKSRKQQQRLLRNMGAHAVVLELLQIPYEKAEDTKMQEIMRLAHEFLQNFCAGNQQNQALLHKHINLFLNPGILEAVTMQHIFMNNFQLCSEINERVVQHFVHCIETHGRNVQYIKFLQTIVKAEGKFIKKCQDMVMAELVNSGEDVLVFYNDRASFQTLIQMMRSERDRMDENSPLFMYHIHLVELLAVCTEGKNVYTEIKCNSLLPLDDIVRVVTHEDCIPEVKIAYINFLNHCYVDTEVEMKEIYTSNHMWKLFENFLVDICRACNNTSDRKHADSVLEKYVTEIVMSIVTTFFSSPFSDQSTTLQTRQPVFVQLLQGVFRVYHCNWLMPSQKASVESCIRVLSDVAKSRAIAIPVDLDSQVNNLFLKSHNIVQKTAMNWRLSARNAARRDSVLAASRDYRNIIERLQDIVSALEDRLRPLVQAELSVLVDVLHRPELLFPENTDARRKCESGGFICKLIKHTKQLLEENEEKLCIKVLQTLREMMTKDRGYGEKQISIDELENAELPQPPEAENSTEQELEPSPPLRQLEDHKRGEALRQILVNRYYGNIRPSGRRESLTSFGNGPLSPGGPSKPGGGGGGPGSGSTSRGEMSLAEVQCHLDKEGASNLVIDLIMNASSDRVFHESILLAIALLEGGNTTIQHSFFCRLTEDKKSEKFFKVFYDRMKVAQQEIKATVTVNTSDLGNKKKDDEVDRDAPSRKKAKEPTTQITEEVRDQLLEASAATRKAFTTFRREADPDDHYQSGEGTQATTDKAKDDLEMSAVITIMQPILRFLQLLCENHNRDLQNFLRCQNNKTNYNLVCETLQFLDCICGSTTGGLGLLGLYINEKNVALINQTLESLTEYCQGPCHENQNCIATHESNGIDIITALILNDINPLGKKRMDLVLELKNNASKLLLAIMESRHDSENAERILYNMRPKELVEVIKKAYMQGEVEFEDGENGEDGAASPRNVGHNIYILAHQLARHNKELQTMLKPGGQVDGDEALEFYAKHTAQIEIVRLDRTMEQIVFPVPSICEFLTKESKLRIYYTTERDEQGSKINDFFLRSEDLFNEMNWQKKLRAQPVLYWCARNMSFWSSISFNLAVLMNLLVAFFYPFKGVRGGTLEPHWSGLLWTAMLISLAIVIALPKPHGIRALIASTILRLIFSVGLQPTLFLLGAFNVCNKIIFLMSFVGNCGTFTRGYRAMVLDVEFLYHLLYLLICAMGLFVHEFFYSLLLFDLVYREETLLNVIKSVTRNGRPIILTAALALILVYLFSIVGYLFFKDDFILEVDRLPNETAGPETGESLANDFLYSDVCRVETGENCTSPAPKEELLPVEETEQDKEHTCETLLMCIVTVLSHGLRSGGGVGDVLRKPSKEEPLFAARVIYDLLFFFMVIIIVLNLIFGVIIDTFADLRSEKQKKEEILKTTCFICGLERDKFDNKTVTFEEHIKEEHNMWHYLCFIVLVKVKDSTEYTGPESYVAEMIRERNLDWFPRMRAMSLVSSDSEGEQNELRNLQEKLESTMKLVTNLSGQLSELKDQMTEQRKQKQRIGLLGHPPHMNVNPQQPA

O=S(=O)(O)OC[C@H](OS(=O)(=O)O)[C@@H](O[C@@H]1O[C@H](COS(=O)(=O)O)[C@@H](OS(=O)(=O)O)[C@H](OS(=O)(=O)O)[C@H]1OS(=O)(=O)O)[C@H](OS(=O)(=O)O)[C@@H](COS(=O)(=O)O)OS(=O)(=O)O [Example 4, 1,2,4,5,6-penta-O-sulfato-3-O-(2,3,4,6-tetra-β-sulfato-β-D-glucopyranosyl)-D-glucitol nona potassium salt]
Oedema: area of oedema relative to area of vasculature (average ± SEM) (BN rats [1]; [3]): 113 ± 7
Oedema: area of oedema relative to area of vasculature (average ± SEM) (BN rats [1]; [4]): 106 ± 8
number of PAS(+) cells as percent of total number of cells (average ± SEM) (BN rats [2]; [3]): 15.0 ± 2.7%
number of PAS(+) cells as percent of total number of cells (average ± SEM) (BN rats [2]; [4]): 6.3 ± 1.5%
MAX: Contraction at maximal Ach concentration relative to control (mean ± SEM) (BN-rats; 0.01 mg/kg intratracheally 2 hours before ovalbumin challenge): 134 ± 26
MAX: Contraction at maximal Ach concentration relative to control (mean ± SEM) (BN-rats; 1.0 mg/kg intratracheally 2 hours before ovalbumin challenge): 116 ± 37
IC50 (IP-3 receptor; read-out: Average IC50): 163 nM
IC50 (IP-3 receptor; read-out: IC 50 (μg/ml) Average ± SEM (n) (converted)): 216 nM
